Measurements taken from US10377753B2, “Substituted 4-azaindoles and their use as GluN2B receptor modulators” (Janssen Pharmaceutica NV, priority 2015, dated 2019).
Structures can show the parent of a compound that is named as a salt.

Target: cloned human NR1/NR2B ion channels (Homo sapiens (Human), UniProt Q05586+Q13224)
Experiment: HNR2BC: effects of test articles on cloned human NR1/NR2B ion channels expressed in mammalian cells (FLIPR calcium flux)
Format: cell-based
Conditions: cloned human NR1/NR2B, Table 5
Method: HNR2BC: Effects of Test Articles on Cloned Human NR1/NR2B Ion Channels Expressed in Mammalian Cells
NMDA receptors are ion channels that are highly permeable to Ca^2+ ions, rendering it possible to monitor NMDA receptor function using cell-based calcium flux assay. In this assay, co-agonists glutamate and glycine are added to cells heterologously expressing human GluN1/GluN2B NMDA receptors to initiate cellular Ca^2+ influx. The time course of the changes in intracellular calcium is measured using a fluorescent dye and a FLIPR (Fluorometric Imaging Plate Reader) device.
Twenty four hours before measurements, the expression of the NMDA receptors in the stable cell line is induced with Tet-On inducible system in the presence of a non-selective NMDA receptor blocker. On the day of the experiment, cell culture media is carefully washed and the cells are loaded with Calcium 5 Dye Kit (Molecular Devices) in dye loading buffer containing 137 mM NaCl, 4 mM KCl, 2 mM CaCl2, 0.5 mM MgCl2, 10 mM HEPES and 5 mM D-glucose; pH 7.4. After 1 h incubation at the room temperature, the dye is washed away with the assay buffer (137 mM NaCl, 4 mM KCl, 2 mM CaCl2, 0.01 mM EDTA, 10 mM HEPES and 5 mM D-glucose; pH 7.4) In the FLIPR TETRA reader, various concentrations of the test compounds are added to the cells for 5 min while fluorescence is monitored to detect potential agonist activity. Next, co-agonists, glutamate and glycine are added for another 5 minutes. The concentration of glutamate corresponding to ˜EC80 is used to maximize the assay's signal window and ability to detect NMDA receptor antagonists and negative allosteric modulators. A saturating concentration (10 μM) of glycine is also present in the assay. […] The fluorescent signal in the presence of test compounds is quantified and normalized to the signal defined by the appropriate control wells.

Chain of cloned human NR1/NR2B ion channels (Q13224 27-1484, other chains not shown): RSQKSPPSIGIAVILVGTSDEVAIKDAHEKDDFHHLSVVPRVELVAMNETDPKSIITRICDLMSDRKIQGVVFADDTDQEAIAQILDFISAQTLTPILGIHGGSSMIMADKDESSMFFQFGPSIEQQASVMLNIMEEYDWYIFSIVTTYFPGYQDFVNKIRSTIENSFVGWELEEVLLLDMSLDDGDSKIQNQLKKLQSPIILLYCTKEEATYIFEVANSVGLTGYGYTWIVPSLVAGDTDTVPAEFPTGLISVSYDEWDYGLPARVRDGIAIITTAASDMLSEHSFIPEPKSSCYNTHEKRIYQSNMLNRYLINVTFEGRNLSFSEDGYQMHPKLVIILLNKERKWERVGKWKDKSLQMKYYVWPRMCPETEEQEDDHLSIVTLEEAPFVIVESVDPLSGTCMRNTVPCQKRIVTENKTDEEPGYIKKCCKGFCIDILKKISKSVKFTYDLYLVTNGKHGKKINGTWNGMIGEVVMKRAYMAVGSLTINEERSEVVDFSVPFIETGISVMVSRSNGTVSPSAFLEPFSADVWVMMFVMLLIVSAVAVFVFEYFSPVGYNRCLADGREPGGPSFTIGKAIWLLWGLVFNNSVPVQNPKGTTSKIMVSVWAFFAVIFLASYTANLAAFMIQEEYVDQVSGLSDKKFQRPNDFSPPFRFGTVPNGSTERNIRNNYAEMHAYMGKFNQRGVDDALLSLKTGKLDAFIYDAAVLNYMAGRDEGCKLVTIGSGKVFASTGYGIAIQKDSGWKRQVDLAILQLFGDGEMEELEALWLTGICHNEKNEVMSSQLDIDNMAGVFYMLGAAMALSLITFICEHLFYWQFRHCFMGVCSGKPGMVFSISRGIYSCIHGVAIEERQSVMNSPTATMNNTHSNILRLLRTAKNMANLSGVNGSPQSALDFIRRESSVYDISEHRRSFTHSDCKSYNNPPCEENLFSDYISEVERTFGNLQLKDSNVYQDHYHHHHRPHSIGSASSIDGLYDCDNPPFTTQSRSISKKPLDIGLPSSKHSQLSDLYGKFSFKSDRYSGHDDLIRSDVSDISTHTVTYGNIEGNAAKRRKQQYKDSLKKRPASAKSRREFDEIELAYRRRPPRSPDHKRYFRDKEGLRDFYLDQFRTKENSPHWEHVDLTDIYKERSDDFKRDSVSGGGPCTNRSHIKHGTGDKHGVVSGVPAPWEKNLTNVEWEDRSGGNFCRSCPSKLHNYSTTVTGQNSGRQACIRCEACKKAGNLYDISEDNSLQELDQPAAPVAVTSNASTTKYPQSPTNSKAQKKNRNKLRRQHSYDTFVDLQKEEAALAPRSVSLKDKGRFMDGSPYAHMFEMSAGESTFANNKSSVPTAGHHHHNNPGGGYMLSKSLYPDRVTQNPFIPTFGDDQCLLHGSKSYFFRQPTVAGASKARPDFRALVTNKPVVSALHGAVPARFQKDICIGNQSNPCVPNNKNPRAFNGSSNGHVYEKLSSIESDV

Structure (SMILES)	IC50 [µM]	pIC50
Cc1cc(-c2cnc3ccn(CC4CCO4)c3c2)ccc1F (racemic) [Example 184, (R/S)-6-(4-Fluoro-3-methyl-phenyl)-1-(oxetan-2-ylmethyl)pyrrolo[3,2-b]pyridine trifluoroacetate salt]	0.501	–
Cc1cc(-c2cnc3ccn(CC(=O)N4CCOC(C)C4)c3c2)ccc1F (racemic) [Example 194, (R/S)-2-[6-(4-Fluoro-3-methyl-phenyl)pyrrolo[3,2-b]pyridin-1-yl]-1-(2-methylmorpholin-4-yl)ethanone trifluoroacetate salt]	0.158	–
Cc1cc(-c2cnc3ccn(CC(=O)N4CCCC(C(F)(F)F)C4)c3c2)ccc1F (racemic) [Example 195, (R/S)-2-[6-(4-Fluoro-3-methyl-phenyl)pyrrolo[3,2-b]pyridin-1-yl]-1-[3-(trifluoromethyl)-1-piperidyl]ethanone trifluoroacetate salt]	0.398	–
CCC1CCCN1C(=O)Cn1ccc2ncc(-c3ccc(F)c(C)c3)cc21 (racemic) [Example 196, (R/S)-1-(2-Ethylpyrrolidin-1-yl)-2-[6-(4-fluoro-3-methyl-phenyl)pyrrolo[3,2-b]pyridin-1-yl]ethanone trifluoroacetate salt]	1.26	–
Cc1cc(-c2cnc3ccn(CC(=O)N4CCCC(F)C4)c3c2)ccc1F (racemic) [Example 199, (R/S)-2-[6-(4-Fluoro-3-methyl-phenyl)pyrrolo[3,2-b]pyridin-1-yl]-1-(3-fluoro-1-piperidyl)ethanone trifluoroacetate salt]	0.2	–
Fc1ccc(-c2cnc3ccn(CC4CCCCO4)c3c2)cc1 (racemic) [Example 228, (R/S)-6-(4-Fluorophenyl)-1-(tetrahydropyran-2-ylmethyl)pyrrolo[3,2-b]pyridine trifluoroacetate salt]	0.631	–
CC(NC(=O)Cn1ccc2ncc(-c3ccc(F)cc3)cc21)C(F)(F)F (racemic) [Example 231, (R/S)-2-[6-(4-Fluorophenyl)pyrrolo[3,2-b]pyridin-1-yl]-N-(2,2,2-trifluoro-1-methyl-ethyl)acetamide]	2	–
Cc1cc(-c2cnc3ccn(CC(C)(O)C4CC4)c3c2)ccc1F (racemic) [Example 275, (R/S)-2-Cyclopropyl-1-[6-(4-fluoro-3-methyl-phenyl)pyrrolo[3,2-b]pyridin-1-yl]propan-2-ol trifluoroacetate salt]	0.158	–
Cc1cc(-c2cnc3ccn(CC(F)C4CC4)c3c2)ccc1F (racemic) [Example 289, (R/S)-1-(2-Cyclopropyl-2-fluoro-ethyl)-6-(4-fluoro-3-methyl-phenyl)pyrrolo[3,2-b]pyridine]	0.0794	–
Cc1cc(-c2cnc3ccn(C[S+](C)[O-])c3c2)ccc1F (racemic) [Example 331, (R/S)-6-(4-Fluoro-3-methyl-phenyl)-1-(methylsulfinylmethyl)pyrrolo[3,2-b]pyridine]	3.98	–
O=C(Cn1ccc2ncc(-c3ccc(F)cc3)cc21)N1CC[C@H](F)C1 (single isomer, unassigned) [Example 293, trifluoroacetate salt]	0.0316	–
O=C(Cn1cc(Cl)c2ncc(-c3ccccc3)cc21)NC1CC1 [Example 1, 2-(3-Chloro-6-phenyl-pyrrolo[3,2-b]pyridin-1-yl)-N-cyclopropyl-acetamide]	0.316	–
O=C(Cn1cc(Cl)c2ncc(-c3ccc(F)cc3)cc21)NC1CC1 [Example 2, 2-[3-Chloro-6-(4-fluorophenyl)pyrrolo[3,2-b]pyridin-1-yl]-N-cyclopropyl-acetamide]	0.126	–
O=C(Cn1cc(Cl)c2ncc(-c3ccc(F)cc3)cc21)N1CCC1 [Example 3, 1-(Azetidin-1-yl)-2-[3-chloro-6-(4-fluorophenyl)pyrrolo[3,2-b]pyridin-1-yl]ethanone]	–	7.6
O=C(Cn1cc(Cl)c2ncc(-c3ccccc3)cc21)N1CCC1 [Example 6, 1-(Azetidin-1-yl)-2-(3-chloro-6-phenyl-pyrrolo[3,2-b]pyridin-1-yl)ethanone]	0.0501	–
Cc1cccc(-c2cnc3c(Cl)cn(CC(=O)N4CCC4)c3c2)c1 [Example 8, 1-(Azetidin-1-yl)-2-[3-chloro-6-(m-tolyl)pyrrolo[3,2-b]pyridin-1-yl]ethanone]	0.0316	–
O=C(Cn1cc(Cl)c2ncc(-c3ccc(F)cc3)cc21)N1CCCC1 [Example 9, 2-[3-Chloro-6-(4-fluorophenyl)pyrrolo[3,2-b]pyridin-1-yl]-1-pyrrolidin-1-yl-ethanone]	0.0631	–
Cc1cccc(-c2cnc3c(Cl)cn(CC(=O)NC4CC4)c3c2)c1 [Example 10, 2-[3-Chloro-6-(m-tolyl)pyrrolo[3,2-b]pyridin-1-yl]-N-cyclopropyl-acetamide]	0.0501	–
Cc1cccc(-c2cnc3c(Cl)cn(CC(=O)N4CCOCC4)c3c2)c1 [Example 13, 2-[3-Chloro-6-(m-tolyl)pyrrolo[3,2-b]pyridin-1-yl]-1-morpholino-ethanone]	0.0501	–
O=C(Cn1cc(Br)c2ncc(-c3ccccc3)cc21)NC1CC1 [Example 14, 2-(3-Bromo-6-phenyl-pyrrolo[3,2-b]pyridin-1-yl)-N-cyclopropyl-acetamide]	0.126	–
O=C(Cn1cc(Br)c2ncc(-c3ccc(F)cc3)cc21)NC1CC1 [Example 17, 2-[3-Bromo-6-(4-fluorophenyl)pyrrolo[3,2-b]pyridin-1-yl]-N-cyclopropyl-acetamide]	0.0501	–
O=C(Cn1cc(Br)c2ncc(-c3ccc(F)cc3)cc21)N1CCC1 [Example 18, 1-(Azetidin-1-yl)-2-[3-bromo-6-(4-fluorophenyl)pyrrolo[3,2-b]pyridin-1-yl]ethanone]	0.02	–
O=C(Cn1cc(Br)c2ncc(-c3ccc(F)cc3)cc21)N1CCCC1 [Example 19, 2-[3-Bromo-6-(4-fluorophenyl)pyrrolo[3,2-b]pyridin-1-yl]-1-pyrrolidin-1-yl-ethanone]	0.0316	–

The remaining compounds from weak to strong by IC50, led by results:

IC50 [µM]	pIC50	Structure (SMILES)
1	–	COC1CCN(C(=O)Cn2ccc3ncc(-c4ccc(F)c(C)c4)cc32)C1 (racemic) [Example 198, (R/S)-2-[6-(4-Fluoro-3-methyl-phenyl)pyrrolo[3,2-b]pyridin-1-yl]-1-(3-methoxypyrrolidin-1-yl)ethanone trifluoroacetate salt]
0.794	–	Cc1cc(-c2cnc3ccn(CC4CO4)c3c2)ccc1F (racemic) [Example 180, (R/S)-6-(4-Fluoro-3-methyl-phenyl)-1-(oxiran-2-ylmethyl)pyrrolo[3,2-b]pyridine trifluoroacetate salt]
0.398	–	Cc1cc(-c2cnc3ccn(CC(=O)N4CCOCC4C)c3c2)ccc1F (racemic) [Example 210, (R/S)-2-[6-(4-Fluoro-3-methyl-phenyl)pyrrolo[3,2-b]pyridin-1-yl]-1-(3-methylmorpholin-4-yl)ethanone trifluoroacetate salt]
0.398	–	O=C(Cn1ccc2ncc(-c3ccc(F)cc3)cc21)N1CCC(O)C1 (racemic) [Example 218, (R/S)-2-[6-(4-Fluorophenyl)pyrrolo[3,2-b]pyridin-1-yl]-1-(3-hydroxypyrrolidin-1-yl)ethanone]
0.2	–	O=C(Cn1cc(Cl)c2ncc(-c3ccccc3)cc21)N1CCOCC1 [Example 5, 2-(3-Chloro-6-phenyl-pyrrolo[3,2-b]pyridin-1-yl)-1-morpholino-ethanone]
0.158	–	O=C(Cn1cc(Cl)c2ncc(-c3ccc(F)cc3)cc21)N1CCOCC1 [Example 7, 2-[3-Chloro-6-(4-fluorophenyl)pyrrolo[3,2-b]pyridin-1-yl]-1-morpholino-ethanone]
0.126	–	Cc1cc(-c2cnc3ccn(CC(=O)N4CC5CC5C4)c3c2)ccc1F (racemic) [Example 189, (R/S)-1-(3-Azabicyclo[3.1.0]hexan-3-yl)-2-[6-(4-fluoro-3-methyl-phenyl)pyrrolo[3,2-b]pyridin-1-yl]ethanone trifluoroacetate salt]
0.0794	–	O=C(Cn1cc(Br)c2ncc(-c3ccccc3)cc21)N1CCOCC1 [Example 16, 2-(3-Bromo-6-phenyl-pyrrolo[3,2-b]pyridin-1-yl)-1-morpholino-ethanone]
0.0501	–	O=C(Cn1cc(Cl)c2ncc(-c3ccccc3)cc21)N1CCCC1 [Example 4, 2-(3-Chloro-6-phenyl-pyrrolo[3,2-b]pyridin-1-yl)-1-pyrrolidin-1-yl-ethanone]
0.0398	–	Cc1cccc(-c2cnc3c(Cl)cn(CC(=O)N4CCCC4)c3c2)c1 [Example 12, 2-[3-Chloro-6-(m-tolyl)pyrrolo[3,2-b]pyridin-1-yl]-1-pyrrolidin-1-yl-ethanone]
0.0398	–	O=C(Cn1cc(Br)c2ncc(-c3ccccc3)cc21)N1CCCC1 [Example 15, 2-(3-Bromo-6-phenyl-pyrrolo[3,2-b]pyridin-1-yl)-1-pyrrolidin-1-yl-ethanone]
0.0251	–	CC(C)C(O)Cn1ccc2ncc(-c3cc(F)cc(F)c3)cc21 (racemic) [Example 272]
0.0251	–	O=C(Cn1cc(Br)c2ncc(-c3ccccc3)cc21)N1CCC1 [Example 11, 1-(Azetidin-1-yl)-2-(3-bromo-6-phenyl-pyrrolo[3,2-b]pyridin-1-yl)ethanone]
